The source of these data is US9492471B2, “Methods of treating a disease or disorder associated with Bruton'S Tyrosine Kinase” (Celgene Avilomics Research, Inc., priority 2013, dated 2016).

Read-outs that look alike come from different tables or passages of the source.

Holding throughout (test): HotSpot kinase profiling
Holding throughout (type): biochemical

Test [1] concerns the target T1, EPHA1 (Homo sapiens, UniProt P21709).
T1 construct: purchased Reaction Biology Corp
T1 sequence (P21709 26-976): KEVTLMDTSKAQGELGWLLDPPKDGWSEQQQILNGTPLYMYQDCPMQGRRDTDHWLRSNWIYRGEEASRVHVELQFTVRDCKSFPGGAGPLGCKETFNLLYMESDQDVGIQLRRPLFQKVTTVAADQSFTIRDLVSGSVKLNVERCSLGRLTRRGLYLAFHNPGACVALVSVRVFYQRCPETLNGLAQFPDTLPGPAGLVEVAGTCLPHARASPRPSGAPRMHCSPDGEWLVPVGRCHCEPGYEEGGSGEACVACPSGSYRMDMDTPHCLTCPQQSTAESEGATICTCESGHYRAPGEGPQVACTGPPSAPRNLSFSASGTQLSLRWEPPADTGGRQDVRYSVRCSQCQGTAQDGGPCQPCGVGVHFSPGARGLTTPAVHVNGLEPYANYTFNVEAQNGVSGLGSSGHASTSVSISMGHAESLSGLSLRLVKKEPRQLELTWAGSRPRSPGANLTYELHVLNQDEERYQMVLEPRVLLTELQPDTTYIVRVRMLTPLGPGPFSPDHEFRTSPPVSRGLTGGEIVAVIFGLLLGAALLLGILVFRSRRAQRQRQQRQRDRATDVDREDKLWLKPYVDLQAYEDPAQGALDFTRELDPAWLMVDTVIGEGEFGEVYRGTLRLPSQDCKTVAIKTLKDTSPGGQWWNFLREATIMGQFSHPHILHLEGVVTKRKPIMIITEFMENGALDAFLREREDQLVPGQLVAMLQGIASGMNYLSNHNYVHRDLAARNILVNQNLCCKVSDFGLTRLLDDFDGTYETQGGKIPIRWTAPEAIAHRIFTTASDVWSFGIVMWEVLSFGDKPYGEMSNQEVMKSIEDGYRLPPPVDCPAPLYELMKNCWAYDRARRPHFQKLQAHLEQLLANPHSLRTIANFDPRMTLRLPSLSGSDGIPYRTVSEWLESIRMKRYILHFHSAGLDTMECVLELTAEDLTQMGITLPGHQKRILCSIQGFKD
Put shortly:
(§1)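 Radio-isotope P81 filtration format. Substrate + required cofactors in reaction buffer, kinase added, 2 h RT. Stop, wash with 0.1% phosphoric acid, detect. % inhibition vs DMSO; mean of duplicates where repeated.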

Test [2] addresses T2, MST1/STK4 (Homo sapiens, UniProt Q13043).
T2 construct: purchased Reaction Biology Corp
T2 sequence (Q13043 1-487): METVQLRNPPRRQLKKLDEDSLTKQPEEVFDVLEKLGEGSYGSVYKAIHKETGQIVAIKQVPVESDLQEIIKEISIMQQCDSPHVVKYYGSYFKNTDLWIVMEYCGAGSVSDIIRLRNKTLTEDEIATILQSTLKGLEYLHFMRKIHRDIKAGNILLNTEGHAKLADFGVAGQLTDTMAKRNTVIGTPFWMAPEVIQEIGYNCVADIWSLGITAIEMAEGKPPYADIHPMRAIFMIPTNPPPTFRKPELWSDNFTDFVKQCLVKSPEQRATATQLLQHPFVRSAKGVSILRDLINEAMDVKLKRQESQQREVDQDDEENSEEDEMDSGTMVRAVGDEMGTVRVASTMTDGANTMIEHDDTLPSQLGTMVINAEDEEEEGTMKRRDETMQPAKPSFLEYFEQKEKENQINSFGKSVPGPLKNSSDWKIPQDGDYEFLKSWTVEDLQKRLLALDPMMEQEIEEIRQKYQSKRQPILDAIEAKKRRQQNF
Put shortly: as §1

Test [3] deals with T3, PKCzeta (Homo sapiens, UniProt Q05513).
T3 construct: purchased Reaction Biology Corp
T3 sequence (Q05513 1-592): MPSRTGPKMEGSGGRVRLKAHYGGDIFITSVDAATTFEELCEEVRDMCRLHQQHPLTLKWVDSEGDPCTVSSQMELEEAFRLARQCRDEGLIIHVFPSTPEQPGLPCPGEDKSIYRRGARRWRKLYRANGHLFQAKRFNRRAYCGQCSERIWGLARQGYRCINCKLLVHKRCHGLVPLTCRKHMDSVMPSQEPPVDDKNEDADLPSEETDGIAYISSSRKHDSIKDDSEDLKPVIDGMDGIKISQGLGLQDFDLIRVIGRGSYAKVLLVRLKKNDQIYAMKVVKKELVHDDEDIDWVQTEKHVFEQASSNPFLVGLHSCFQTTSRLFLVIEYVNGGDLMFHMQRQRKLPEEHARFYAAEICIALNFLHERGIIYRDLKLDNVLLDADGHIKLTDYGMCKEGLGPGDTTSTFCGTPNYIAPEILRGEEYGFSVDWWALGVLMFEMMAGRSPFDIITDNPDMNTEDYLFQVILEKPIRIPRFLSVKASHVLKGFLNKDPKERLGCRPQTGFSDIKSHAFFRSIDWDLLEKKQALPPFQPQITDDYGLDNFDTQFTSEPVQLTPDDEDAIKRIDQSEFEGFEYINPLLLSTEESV
Put shortly: as §1

[4] abbreviates: read-out: % Enzyme Activity (relative to DMSO controls) Run 1.
[5] abbreviates: read-out: % Enzyme Activity (relative to DMSO controls) Run 2.

The inhibition is the drop in the measured response relative to a control, in per cent. For `C=CC(=O)Nc1cccc(Nc2nc(Nc3ccc(OCCOC)c(F)c3)ncc2F)c1` [Compound 2], the inhibition at 3 µM in test [1] was -0.24%; in test [2] it was 30.6%; in test [3], 2.52%. Further, the remaining activity at 3 µM in test [1] (setting [4]) stood at 99.5%; in test [1] (setting [5]), 101%; in test [2] (setting [4]), 70.2%; in test [2] (setting [5]), 68.7%; in test [3] (setting [4]) it was 99.8%; in test [3] (setting [5]), 95.2%.
